Measurements reported in patent US9695155B2, “Herbicidal substituted pyrimidinyloxy benzene compounds” (E. I. DU PONT DE NEMOURS AND COMPANY, priority 2013, dated 2017).

How the values were obtained:
wild buckwheat = test: Test D postemergence; assay type: in vivo, Polygonum convolvulus; conditions: Fallopia convolvulus, post-emergence, Postemergence, scale 0 to 100 (0 no effect, 100 complete control), read-out: Plant response rating, Buckwheat, Wild
Outline: (§1)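 After treatment, visual injury versus untreated plants, 0–100 scale, assessed at 7 to 21 days. Applications were made preemergence to silt loam-sown seed and postemergence to seedlings 2–18 cm high in potting medium.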

wild oat = test: Test D preemergence; assay type: in vivo, Avena fatua; conditions: Avena fatua, pre-emergence, scale 0-100, read-out: Plant response rating, Oat, Wild
Outline: as §1

Italian ryegrass [1] = test: Test D postemergence; assay type: in vivo, Lolium multiflorum; conditions: Lolium multiflorum, post-emergence, scale 0 to 100 (0 no effect, 100 complete control), read-out: Plant response rating, Ryegrass, Italian
Outline: as §1

chickweed = test: Test D preemergence; assay type: in vivo, Stellaria media; conditions: Stellaria media, pre-emergence, scale 0-100, read-out: Plant response rating, Chickweed
Outline: as §1

spring wheat = test: Test D postemergence; assay type: in vivo, Triticum aestivum; conditions: Triticum aestivum, post-emergence, scale 0 to 100 (0 no effect, 100 complete control), read-out: Plant response rating, Wheat, Spring
Outline: as §1

winter wheat = test: Test D postemergence; assay type: in vivo, Triticum aestivum; conditions: Triticum aestivum, post-emergence, scale 0 to 100 (0 no effect, 100 complete control), read-out: Plant response rating, Wheat, Winter
Outline: as §1

windgrass [2] = test: Test D preemergence; assay type: in vivo, Apera spica-venti; conditions: Apera spica-venti, pre-emergence
Outline: as §1

bluegrass = test: Test D postemergence; assay type: in vivo, Poa annua; conditions: Poa annua, post-emergence, Postemergence, scale 0 to 100 (0 no effect, 100 complete control), read-out: Plant response rating, Bluegrass
Outline: as §1

windgrass [3] = test: Test D postemergence; assay type: in vivo, Apera spica-venti; conditions: Apera spica-venti, post-emergence, scale 0 to 100 (0 no effect, 100 complete control), read-out: Plant response rating, Windgrass
Outline: as §1

Italian ryegrass [4] = test: Test D preemergence; assay type: in vivo, Lolium multiflorum; conditions: Lolium multiflorum, pre-emergence
Outline: as §1

blackgrass = test: Test D postemergence; assay type: in vivo, Alopecurus myosuroides; conditions: Alopecurus myosuroides, post-emergence, Postemergence, scale 0 to 100 (0 no effect, 100 complete control), read-out: Plant response rating, Blackgrass
Outline: as §1

field bindweed = test: Test E postemergence; assay type: in vivo, Convolvulus arvensis; conditions: Convolvulus arvensis, post-emergence, read-out: Plant response rating, Field Bindweed
Outline: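 Test chemicals formulated in a non-phytotoxic solvent mixture containing a surfactant were applied preemergence to seeds in silt loam soil or postemergence to plants at the 1- to 4-leaf stage in potting mix. After 14 to 21 days in a greenhouse, injury was visually rated against controls on a 0-100 scale (0 = no effect, 100 = complete control).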

field poppy = test: Test D preemergence; assay type: in vivo, Papaver rhoeas; conditions: Papaver rhoeas, pre-emergence, scale 0-100, read-out: Plant response rating, Field Poppy
Outline: as §1

`N#Cc1cccc(Oc2ncc(Cl)cn2)c1-n1cc(C(F)(F)F)cn1` [Compound 58, 3-[(5-chloro-2-pyrimidinyl)oxy]-2-[4-(trifluoromethyl)-1H-pyrazol-1-yl]benzonitrile] gave a pest or weed control at 31 g/ha (wild buckwheat; 31 g ai/ha) of 90%, a pest or weed control at 62 g/ha (wild buckwheat; 62 g ai/ha) of 100% and a pest or weed control at 125 g/ha (wild buckwheat; 125 g ai/ha) of 100%. The pest or weed control at 250 g/ha (wild buckwheat; 250 g ai/ha) was 100%, the pest or weed control at 31 g/ha (wild oat; 31 g ai/ha) was 15% and the pest or weed control at 62 g/ha (wild oat; 62 g ai/ha) was 25%. For the same compound, the pest or weed control at 125 g/ha (wild oat; 125 g ai/ha) was 60%, the pest or weed control at 250 g/ha (wild oat; 250 g ai/ha) was 100% and the pest or weed control at 31 g/ha (Italian ryegrass [1]; 31 g ai/ha) was 10%. The pest or weed control at 62 g/ha (Italian ryegrass [1]; 62 g ai/ha) was 20%, the pest or weed control at 125 g/ha (Italian ryegrass [1]; 125 g ai/ha) was 50% and the pest or weed control at 250 g/ha (Italian ryegrass [1]; 250 g ai/ha) was 65%. The pest or weed control at 31 g/ha (chickweed; 31 g ai/ha) was 100%, the pest or weed control at 62 g/ha (chickweed; 62 g ai/ha) was 100% and the pest or weed control at 125 g/ha (chickweed; 125 g ai/ha) was 100%. For the same compound, the pest or weed control at 250 g/ha (chickweed; 250 g ai/ha) was 100%, the plant injury at 31 g/ha (spring wheat; 31 g ai/ha) was 10% and the plant injury at 62 g/ha (spring wheat; 62 g ai/ha) was 15%. For the same compound, the plant injury at 125 g/ha (spring wheat; 125 g ai/ha) was 20%, the plant injury at 250 g/ha (spring wheat; 250 g ai/ha) was 35% and the plant injury at 31 g/ha (winter wheat; 31 g ai/ha) was 15%. For the same compound, the plant injury at 62 g/ha (winter wheat; 62 g ai/ha) was 20%, the plant injury at 125 g/ha (winter wheat; 125 g ai/ha) was 25% and the plant injury at 250 g/ha (winter wheat; 250 g ai/ha) was 40%. The pest or weed control at 31 g/ha (windgrass [2]; 31 g ai/ha, scale 0 (no effect) to 100 (complete control), read-out: Plant response rating, Windgrass) was 100%, the pest or weed control at 62 g/ha (windgrass [2]; 62 g ai/ha, scale 0-100, read-out: Plant response rating, Windgrass) was 100% and the pest or weed control at 125 g/ha (windgrass [2]; 125 g ai/ha, scale 0-100, read-out: Plant response rating, Windgrass) was 100%. The pest or weed control at 250 g/ha (windgrass [2]; 250 g ai/ha, scale 0-100, read-out: Plant response rating, Windgrass) was 100%, the pest or weed control at 31 g/ha (bluegrass; 31 g ai/ha) was 25% and the pest or weed control at 62 g/ha (bluegrass; 62 g ai/ha) was 35%. The pest or weed control at 125 g/ha (bluegrass; 125 g ai/ha) was 45%, the pest or weed control at 250 g/ha (bluegrass; 250 g ai/ha) was 55% and the pest or weed control at 31 g/ha (windgrass [3]; 31 g ai/ha) was 20%. The pest or weed control at 62 g/ha (windgrass [3]; 62 g ai/ha) was 35%, the pest or weed control at 125 g/ha (windgrass [3]; 125 g ai/ha) was 55% and the pest or weed control at 250 g/ha (windgrass [3]; 250 g ai/ha) was 90%. For the same compound, the pest or weed control at 31 g/ha (Italian ryegrass [4]; 31 g ai/ha, scale 0 (no effect) to 100 (complete control), read-out: Plant response rating, Ryegrass, Italian) was 10%, the pest or weed control at 62 g/ha (Italian ryegrass [4]; 62 g ai/ha, scale 0-100, read-out: Plant response rating, Ryegrass, Italian) was 35% and the pest or weed control at 125 g/ha (Italian ryegrass [4]; 125 g ai/ha, scale 0-100, read-out: Plant response rating, Ryegrass, Italian) was 100%. It also gave a pest or weed control at 250 g/ha (Italian ryegrass [4]; 250 g ai/ha, scale 0-100, read-out: Plant response rating, Ryegrass, Italian) of 100%, a pest or weed control at 62 g/ha (blackgrass; 62 g ai/ha) of 45% and a pest or weed control at 31 g/ha (blackgrass; 31 g ai/ha) of 20%. For the same compound, the pest or weed control at 125 g/ha (blackgrass; 125 g ai/ha) was 70%, the pest or weed control at 250 g/ha (blackgrass; 250 g ai/ha) was 90% and the pest or weed control at 31 g/ha (field bindweed; Postemergence, 31 g ai/ha, scale 0 to 100) was 60%. It also gave a pest or weed control at 62 g/ha (field bindweed; Postemergence, 62 g ai/ha, scale 0 to 100) of 70%, a pest or weed control at 125 g/ha (field bindweed; Postemergence, 125 g ai/ha, scale 0 to 100) of 70% and a pest or weed control at 250 g/ha (field bindweed; Postemergence, 250 g ai/ha, scale 0 to 100) of 80%. It also gave a pest or weed control at 16 g/ha (field bindweed; postemergence, 16 g ai/ha, scale 0 to 100, 0 no effect, 100 complete control) of 50%, a pest or weed control at 31 g/ha (field poppy; 31 g ai/ha) of 95% and a pest or weed control at 62 g/ha (field poppy; 62 g ai/ha) of 100%. It also gave a pest or weed control at 125 g/ha (field poppy; 125 g ai/ha) of 100% and a pest or weed control at 250 g/ha (field poppy; 250 g ai/ha) of 100%.
